In BindingDB's records for doi:10.1021/jm960063l (Institute, 1996):

Experiments:
[1] = Inhibitory constant for RTX binding to porcine spinal cord
[2] = Inhibition of [3H]- RTX binding to Vanilloid receptors from pig spinal cord

For `COc1cc(CC(=O)OCC2=C[C@H]3C4C(C)(C)[C@]4(OC(C)=O)[C@H](OC(=O)Cc4ccccc4)[C@@H](C)[C@]3(O)[C@@H]3C=C(C)C(=O)[C@@]3(O)C2)ccc1O` (stereo partly drawn) [Phenyl-acetic acid (1aR,1bS,4aR,7aS,7bS,8R,9R,9aS)-9a-acetoxy-4a,7b-dihydroxy-3-[2-(4-hydroxy-3-methoxy-phenyl)-acetoxymethyl]-1,1,6,8-tetramethyl-5-oxo-1a,1b,4,4a,5,7a,7b,8,9,9a-decahydro-1H-cyclopropa[3,4]benzo[1,2-e]azulen-9-yl ester], the Ki [1] was 0.12 nM and the Ki [2] was 2100 nM.
